{"source": "ChEMBL document CHEMBL4406878", "about": "“Antiviral efficacy of bromo-anilino substituents of 4,5-dihydrofuran-3-carboxylate compound CW-33 against Japanese encephalitis virus” (Bioorg Med Chem Lett, 2019)", "key": {"[1]": {"test": "Cytotoxicity against human TE671 cells assessed as reduction in cell viability after 48 hrs by MTT assay", "type": "cell-based, TE-671"}, "[2]": {"test_system": "Japanese encephalitis virus", "test": "Antiviral activity against Japanese encephalitis virus infected in human TE671 cells assessed as reduction in virus-induced cytopathic effect at 10 to 100 uM treated immediately post-infection measured at 36 hrs post-infection by inverted microscopic analysis", "type": "functional, organism-based"}, "[3]": {"test_system": "Japanese encephalitis virus", "test": "Antiviral activity against Japanese encephalitis virus infected in human TE671 cells assessed as decline in infected cell apoptotic fraction by measuring proportion of cells at subG1 phase treated immediately post-infection measured at 36 hrs post-infection by PI-staining based flow cytometric analysis", "type": "functional, organism-based", "details": "for IC50: TE-671, 36 h"}, "Enterovirus A71": {"test_system": "Enterovirus A71", "test": "Antiviral activity against Enterovirus A71 infected in human RD cells assessed as reduction in viral yield measured at 48 hrs post-infection by plaque reduction assay", "type": "functional, organism-based", "details": "Enterovirus A"}, "[4]": {"test_system": "Japanese encephalitis virus", "test": "Antiviral activity against Japanese encephalitis virus infected in human TE671 cells assessed as reduction in viral yield treated immediately post-viral infection measured at 72 hrs post-infection by plaque assay", "type": "functional, organism-based", "details": "TE-671, 72 h"}, "[5]": {"test_system": "Japanese encephalitis virus", "test": "Antiviral activity against Japanese encephalitis virus infected in hamster BHK-21 cells assessed as reduction in viral yield treated immediately post-viral infection measured at 72 hrs post-infection by plaque assay", "type": "functional, organism-based", "details": "BHK-21, 72 h"}, "[6]": {"test_system": "Japanese encephalitis virus", "test": "Antiviral activity against Japanese encephalitis virus infected in human TE671 cells assessed as reduction in virus infectivity by measuring decrease in NS3-positive cells treated immediately post-infection measured after 24 hrs by DAPI-staining based immunofluorescence analysis", "type": "functional, organism-based", "details": "for IC50: TE-671, 24 h"}, "[7]": {"test_system": "Japanese encephalitis virus", "test": "Inhibition of synthesis of Japanese encephalitis virus RNA genome transfected as EGFP replicon in human TE671 cells assessed as lowered ratio of negative to positive sense strand RNA at 10 uM treated at 1 hr post-transfection and measured at 36 hrs post treatment by RT-PCR analysis", "type": "functional, organism-based"}, "[8]": {"test_system": "Japanese encephalitis virus", "test": "Antiviral activity against Japanese encephalitis virus infected in human TE671 cells assessed as inhibition of intracellular virion production at 10 uM measured at 24 to 48 hrs post-infection by plaque assay", "type": "functional, organism-based"}, "[9]": {"test_system": "Japanese encephalitis virus", "test": "(§1) Antiviral activity against Japanese encephalitis virus infected in human TE671 cells assessed as reduction in virus entry at early stage by measuring decrease in NS3-positive cells treated immediately after viral infection followed by virus/compound mixture wash-out at 1 hr post-incubation followed by culturing of cells for 24 hrs by DAPI-staining based immunofluorescence analysis", "type": "functional, organism-based", "details": "TE-671"}, "[10]": {"test_system": "Japanese encephalitis virus", "test": "as §1, with “late” for “early”, “at 1 hr post-infection” for “immediately after viral infection”", "type": "functional, organism-based", "details": "TE-671"}, "[11]": {"test": "Therapeutic index, ratio of CC50 for human TE671 cells to IC50 for antiviral activity against Japanese encephalitis virus infected in human TE671 cells assessed as reduction in virus yield by plaque assay", "type": "toxicity, cell-based", "details": "read-out: Ratio CC50/IC50"}, "[12]": {"test_system": "Japanese encephalitis virus", "test": "Antiviral activity against Japanese encephalitis virus infected in human TE671 cells assessed as inhibition of extracellular viral particles production by measuring reduction in virus yield measured after 36 hrs by plaque assay", "type": "functional, organism-based", "details": "for IC50: TE-671, 36 h"}, "[13]": {"test_system": "Japanese encephalitis virus", "test": "Antiviral activity against Japanese encephalitis virus infected in human TE671 cells assessed as reduction in virus entry at late stage by measuring decrease in NS3-positive cells at 1 to 10 uM treated at 1 hr post-infection followed by virus/compound mixture wash-out at 1 hr post-incubation followed by culturing of cells for 24 hrs by DAPI-staining based immunofluorescence analysis", "type": "functional, organism-based"}}, "note": "Activity calls are given as the source filed them. The rule behind the calls is not given here."}
{"smiles": "CCOC(=O)C1=C(Nc2ccc(Cl)cc2)OCC1=O", "values": [{"measurement": "CC50 at 48 h", "setting": "[1]", "value": "> 100", "unit": "µM"}, {"measurement": "inhibition", "setting": "[2]", "value": "Active"}, {"measurement": "inhibition", "setting": "[3]", "value": "inactive"}]}
{"smiles": "CCOC(=O)C1=C(Nc2cccc(Cl)c2)OCC1=O", "values": [{"measurement": "CC50 at 48 h", "setting": "[1]", "value": "> 100", "unit": "µM"}, {"measurement": "inhibition", "setting": "[2]", "value": "Active"}, {"measurement": "inhibition", "setting": "[3]", "value": "inactive"}]}
{"smiles": "CCOC(=O)C1=C(Nc2cc(C)cc(C)c2)OCC1=O", "values": [{"measurement": "IC50", "setting": "Enterovirus A71", "value": 200, "unit": "µM"}, {"measurement": "IC50", "setting": "[4]", "value": 12.7, "unit": "µM"}, {"measurement": "IC50", "setting": "[5]", "value": 12.7, "unit": "µM"}]}
{"smiles": "CCOC(=O)C1=C(Nc2ccccc2Br)OCC1=O", "values": [{"measurement": "inhibition", "setting": "[6]", "value": "Dose-dependent effect"}, {"measurement": "IC50", "setting": "[6]", "value": 0.2, "unit": "µM"}, {"measurement": "CC50 at 48 h", "setting": "[1]", "value": 232, "unit": "µM"}, {"measurement": "inhibition", "setting": "[7]", "value": "Active"}, {"measurement": "inhibition", "setting": "[2]", "value": "Active"}, {"measurement": "inhibition", "setting": "[3]", "value": "Dose-dependent effect"}, {"measurement": "IC50", "setting": "[3]", "value": 3.2, "unit": "µM"}, {"measurement": "inhibition", "setting": "[8]", "value": "Active"}, {"measurement": "IC50", "setting": "[9]", "value": 0.2, "unit": "µM"}, {"measurement": "IC50", "setting": "[10]", "value": 10.2, "unit": "µM"}, {"measurement": "selectivity ratio", "setting": "[11]", "value": 50.2}, {"measurement": "inhibition", "setting": "[12]", "value": "Dose-dependent effect"}, {"measurement": "IC50", "setting": "[12]", "value": 4.6, "unit": "µM"}]}
{"smiles": "CCOC(=O)C1=C(Nc2ccccc2Cl)OCC1=O", "values": [{"measurement": "CC50 at 48 h", "setting": "[1]", "value": "> 100", "unit": "µM"}, {"measurement": "inhibition", "setting": "[2]", "value": "Active"}, {"measurement": "inhibition", "setting": "[3]", "value": "Dose-dependent effect"}, {"measurement": "IC50", "setting": "[3]", "value": 50.5, "unit": "µM"}]}
{"smiles": "CCOC(=O)C1=C(Nc2ccc(Br)cc2)OCC1=O", "values": [{"measurement": "inhibition", "setting": "[6]", "value": "Dose-dependent effect"}, {"measurement": "IC50", "setting": "[6]", "value": 0.4, "unit": "µM"}, {"measurement": "CC50 at 48 h", "setting": "[1]", "value": 129, "unit": "µM"}, {"measurement": "inhibition", "setting": "[7]", "value": "inactive"}, {"measurement": "inhibition", "setting": "[2]", "value": "Active"}, {"measurement": "inhibition", "setting": "[3]", "value": "Dose-dependent effect"}, {"measurement": "IC50", "setting": "[3]", "value": 2, "unit": "µM"}, {"measurement": "inhibition", "setting": "[13]", "value": "Active"}, {"measurement": "selectivity ratio", "setting": "[11]", "value": 16.6}, {"measurement": "inhibition", "setting": "[12]", "value": "Dose-dependent effect"}, {"measurement": "IC50", "setting": "[12]", "value": 7.8, "unit": "µM"}]}
{"smiles": "CCOC(=O)C1=C(Nc2cccc(Br)c2)OCC1=O", "values": [{"measurement": "inhibition", "setting": "[6]", "value": "Dose-dependent effect"}, {"measurement": "IC50", "setting": "[6]", "value": 3.2, "unit": "µM"}, {"measurement": "CC50 at 48 h", "setting": "[1]", "value": 151, "unit": "µM"}, {"measurement": "inhibition", "setting": "[7]", "value": "Active"}, {"measurement": "inhibition", "setting": "[2]", "value": "Active"}, {"measurement": "inhibition", "setting": "[3]", "value": "Dose-dependent effect"}, {"measurement": "IC50", "setting": "[3]", "value": 3.1, "unit": "µM"}, {"measurement": "inhibition", "setting": "[13]", "value": "Active"}, {"measurement": "selectivity ratio", "setting": "[11]", "value": 12.4}, {"measurement": "inhibition", "setting": "[12]", "value": "Dose-dependent effect"}, {"measurement": "IC50", "setting": "[12]", "value": 12.1, "unit": "µM"}]}
